“And” between values parts separate entries of the source, which are not always exact repeats. Equal entries are not always repeated. “Also recorded” adds a separate entry of the source. Where two headings read alike, the source gives them in different places.
Assays:
[1] = system: T1, α1^Q242Lβ3 GABAA receptors; test: Two-electrode voltage clamp, α1(Q242L) mutant receptors in Xenopus oocytes; type: cell-based, rat α1, human β3; settings: low GABA; α1(Q242L)β3
T1 construct: expressed in transfected cells; host or cells: Xenopus laevis oocytes, cRNA injected 5:1 (α1:β3)
Description: (§1) Receptor expression and electrophysiological recordings were conducted as described in detail previously ([Sugasawa et al., 2020]). In brief, α1β3 GABAA receptors were expressed in oocytes from the African clawed frog (X. laevis). The wild-type α1 and β3 subunits were of human origin (Genbank accession numbers NM_000806.5 and NM_000814.5, respectively). The α1 clone containing the Q-to-L mutation to the classic neurosteroid binding site ([Hosie et al., 2006]) was of rat origin. (The glutamine residue in ELIC-α1GABAAR is Q242, whereas the corresponding residue in rat α1 is Q241. For simplicity, the residue is referred to as Q242 for both rat and ELIC-α1GABAAR.) The oocytes were purchased as quarter ovaries from Xenopus1 (Dexter, MI, USA). Following digestion in 2% w/v (mg·ml^−1) collagenase A, the oocytes were injected with a total of 12 ng cRNA per oocyte in a 5:1 ratio (α1:β3) and incubated at 15°C for 2–3 days prior to electrophysiological recordings in ND96 (96-mM NaCl, 2-mM KCl, 1.8-mM CaCl2, 1-mM MgCl2, 5-mM HEPES; pH 7.4) supplemented with 100 U·ml^−1 penicillin and 100 μg·ml^−1 streptomycin.
(§2) Electrophysiological recordings were conducted at ≈22°C using standard two-electrode voltage clamp. The voltage and current electrodes (G120F-4, OD = 1.20 mm, ID = 0.69 mm; Warner Instruments, Hamden, CT, USA) were filled with 3-M KCl and had resistances of 0.3–1 MΩ. The oocytes were clamped at −60 mV. The chamber (RC-1Z; Warner Instruments) was perfused with ND96 at 5–8 ml·min^−1. Solutions were gravity-applied. The current responses were amplified with an Axoclamp 900A (Molecular Devices, San Jose, CA, USA) or OC-725C amplifier (Warner Instruments), digitized with a Digidata 1200 series digitizer (Molecular Devices) and stored on PC hard drive using pClamp (Molecular Devices; RRID:SCR_011323). Current amplitudes were determined using Clampfit (Molecular Devices).
A standard experiment consisted of a several-minute long applications of GABA followed immediately by a co-application of GABA + modulator and a wash in GABA. […]

ELIC-α1^W246LGABAAR = ELIC-α1^W246LGABAAR (Homo sapiens, UniProt P14867, W273L); test: MQ290 FRET in W246L receptors; type: binding; settings: W246L vs WT
Sequence of ELIC-α1^W246LGABAAR (P14867 other isoform, or with tags, fused parts or gaps W273L): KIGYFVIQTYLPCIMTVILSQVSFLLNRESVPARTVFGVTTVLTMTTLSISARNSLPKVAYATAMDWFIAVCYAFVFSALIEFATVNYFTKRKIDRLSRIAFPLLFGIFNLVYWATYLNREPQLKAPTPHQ
Sequence of ELIC-α1^W246LGABAAR (P0C7B7 1-198, further chain): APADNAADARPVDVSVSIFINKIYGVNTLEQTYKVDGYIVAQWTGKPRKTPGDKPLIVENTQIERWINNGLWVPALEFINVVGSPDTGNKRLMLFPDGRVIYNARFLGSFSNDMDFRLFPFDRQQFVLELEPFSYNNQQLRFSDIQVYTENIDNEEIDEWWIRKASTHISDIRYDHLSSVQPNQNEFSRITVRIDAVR
Description: (§3) To monitor binding of MQ290 to ELIC-α1GABAAR, 100 μl of ELIC-α1GABAAR (0.3 μM) was transferred into a 50-μl window quartz cuvette that was placed in a cuvette holder. The temperature of the cuvette was maintained at 4°C. NaI (final concentration = 100 mM) was added to the protein sample and incubated for 10 min to reduce the emission of hydrophilic tryptophan residues. One-microlitre aliquots of 100× stock solutions of MQ290 (prepared in Buffer A + 0.015% DDM) were sequentially added to the protein sample and incubated for 30 min after each addition. Because MQ290 alone absorbs at 280 nm, emission spectrum (background spectrum) of MQ290 in the absence of protein was also obtained. The MQ290 background spectra were subtracted from the protein-MQ290 emission spectra to obtain the background-corrected spectra and were smoothened using the Savitzky–Golay method before analysis.
(§4) The ELIC-α1GABAAR emission spectrum obtained before the addition of MQ290 was used as the reference to estimate the contribution of ELIC-α1GABAAR tryptophan emission in the presence of MQ290. […] The calculated ELIC-α1GABAAR tryptophan emission spectrum was then subtracted from the background-corrected spectrum to obtain the emission spectrum of the signal resulting from energy transfer (FRET spectrum) from tryptophan to MQ290 (Figure S6). […]

ELIC-α1GABAAR [2] = target: T2, ELIC-α1GABAAR (Homo sapiens, UniProt P14867); test: KK200 photolabelling competition, middle-down MS; type: binding; settings: 3 μM KK200, 30 μM competitor
T2 sequence (P14867 other isoform, or with tags, fused parts or gaps): as the sequence (P14867 other isoform, or with tags, fused parts or gaps W273L) above, with L25W counted along it
T2 sequence (P0C7B7 1-198, further chain): as the sequence (P0C7B7 1-198, further chain) above
Description: The synthesis of the NS photolabelling reagent KK200 is detailed in previous reports ([W. W. L. Cheng et al., 2018]; [Jiang et al., 2016]). […] The samples were then irradiated in a quartz cuvette for 5 min, using a photoreactor emitting light at >320 nm ([Germann et al., 2021]). Sample preparation for tryptic digestion and analysis by LC–MS was performed as previously described ([Sugasawa et al., 2019]). Peptides were separated on a home-packed PLRP-S (Agilent, Santa Clara, CA, USA) column (10 cm × 75 μm, 300 Å) using a 135-min gradient from 10% to 90% acetonitrile and introduced to an Orbitrap-Elite mass spectrometer (Thermo Fisher Scientific, Waltham, MA, USA; RRID:SCR_020548) at 800 nl·min^−1 with a nanospray source. MS acquisition was set as an MS1 Orbitrap scan (resolution of 60,000) followed by top 20 MS2 Orbitrap scans (resolution of 15,000) using data-dependent acquisition and exclusion of singly charged precursors. Fragmentation was performed using high-energy dissociation with normalized energy of 35%. Analysis of data sets was performed using Xcalibur (Thermo Fisher Scientific, Waltham, MA, USA; RRID: SCR_014593) to manually search for TM1, TM2, TM3 or TM4 tryptic peptides with or without NS photolabelling modifications. Photolabelling efficiency was estimated by generating extracted chromatograms of unlabelled and labelled peptides, determining the area under the curve, and calculating the (area of labelled peptide/(area of unlabelled + area of labelled peptide). MS2 spectra of photolabelled TMD peptides were analysed by manual assignment of fragment ions with and without photolabelling modification.

ELIC-α1^Q242LGABAAR = test: MQ290 FRET in Q242L receptors; type: binding, human; settings: Q242L vs WT
Description: as §3, §4

α1β3 GABAA receptors = target: T3, α1β3 GABAA receptors (Homo sapiens, UniProt P14867+P28472); test: Two-electrode voltage clamp of GABA-elicited currents in Xenopus oocytes; type: cell-based; settings: for potentiation of GABA-elicited currents: low GABA, wild-type α1β3
T3 construct: expressed in transfected cells; host or cells: Xenopus laevis oocytes, cRNA injected 5:1 (α1:β3)
T3 sequence (P14867 28-456): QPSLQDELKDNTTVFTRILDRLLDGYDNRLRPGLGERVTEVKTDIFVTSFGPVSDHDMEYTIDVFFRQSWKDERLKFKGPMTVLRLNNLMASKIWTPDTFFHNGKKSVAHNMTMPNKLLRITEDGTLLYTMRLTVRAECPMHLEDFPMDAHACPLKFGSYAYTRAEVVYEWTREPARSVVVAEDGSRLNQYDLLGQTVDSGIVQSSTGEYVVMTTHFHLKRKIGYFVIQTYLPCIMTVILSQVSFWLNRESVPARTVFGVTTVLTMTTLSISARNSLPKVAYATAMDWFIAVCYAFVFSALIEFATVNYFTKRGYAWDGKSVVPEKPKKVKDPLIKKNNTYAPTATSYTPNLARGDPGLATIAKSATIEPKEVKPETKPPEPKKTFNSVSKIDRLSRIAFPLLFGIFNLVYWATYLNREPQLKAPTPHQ
T3 sequence (P28472 26-473): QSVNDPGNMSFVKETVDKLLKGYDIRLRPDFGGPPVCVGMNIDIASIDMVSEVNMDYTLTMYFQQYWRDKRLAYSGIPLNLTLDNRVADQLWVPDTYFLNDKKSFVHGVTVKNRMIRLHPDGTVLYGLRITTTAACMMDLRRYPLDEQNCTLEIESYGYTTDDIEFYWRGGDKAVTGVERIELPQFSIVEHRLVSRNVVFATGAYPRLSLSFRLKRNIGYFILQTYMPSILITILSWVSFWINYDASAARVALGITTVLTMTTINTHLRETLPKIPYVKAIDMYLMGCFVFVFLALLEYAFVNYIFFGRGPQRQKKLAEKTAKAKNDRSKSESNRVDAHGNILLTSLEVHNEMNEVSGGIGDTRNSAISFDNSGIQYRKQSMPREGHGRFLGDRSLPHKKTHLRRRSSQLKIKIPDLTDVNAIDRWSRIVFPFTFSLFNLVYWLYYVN
Description: as §1, §2
A standard experiment consisted of a several-minute long applications of GABA followed immediately by a co-application of GABA + modulator and a wash in GABA. For normalization purposes, each cell was exposed to the combination of saturating (1-mM) GABA + 50-μM propofol, assumed to fully activate all receptors in the cell ([Eaton et al., 2016]).

ELIC-α1GABAAR [3] = target: T2, ELIC-α1GABAAR; type: binding
Description: One hundred microlitres of ELIC-α1GABAAR (0.3 μM) was transferred into a 50-μl window quartz cuvette maintained at 4°C, and NaI was added to the protein sample to a final concentration of 100 mM and incubated for 10 min. MQ290 was then added at a concentration of 3 μM for 3α-OH NS inhibition curves or 1 μM for 3β-OH NS inhibition curves and incubated for 30 min. One-microlitre aliquots of 3α-OH and 3β-OH NS from their corresponding stock solutions (prepared in Buffer A + 0.015% DDM) were added to achieve concentrations between 0.01 and 30 μM. The background emission spectra of ligands alone were obtained for each ligand concentration in the absence of protein and were subtracted from the protein-ligand emission spectra to yield background subtracted data. The MQ290 FRET spectra for different ligand concentrations were estimated using the method described above. The 370-nm intensities of the FRET spectra were plotted against ligand concentration and fitted to a four-parameter logistic curve to obtain IC50 data (GraphPad Software version 9.4.0, San Diego, CA). Ki values were calculated using the relationship: Ki=IC50/1+LT/Kd
where LT is the concentration of MQ290 and Kd was determined from the MQ290 binding curve.

ELIC-α1GABAAR [4] = target: T2, ELIC-α1GABAAR; type: binding; remark: listed apart in the source
Description: Excitation and emission spectra were obtained using a FluoroMax Plus-C fluorometer (Horiba Instruments, Tokyo, Japan). For obtaining emission spectra, 280 nm was used as the excitation wavelength and emission was recorded from 300 to 450 nm. The excitation and emission slit widths used for obtaining emission spectra were 1 and 5 nm. For protein-ligand binding experiments, three emission spectra were obtained and averaged after each addition of a ligand or sodium iodide (NaI). The averaged spectra were smoothed using the Savitzky–Golay method before analysis.
One hundred microlitres of purified ELIC-α1GABAAR (0.3 μM in Buffer A + 0.015% DDM) was transferred into a 50-μl window quartz cuvette (Starna Cells, Atascadero, CA, USA), which was placed in a cuvette holder maintained at 4°C. […] Two microlitres of NaI (AK Scientific, Union City, CA, USA; 5-M stock prepared in 0.1-Mm sodium hydrosulfite [Sigma-Aldrich, St. Louis, MO, USA]) was added to the protein (final concentration = 100 mM) and incubated for 10 min to reduce the fluorescence emission from hydrophilic tryptophans. To measure the concentration–dependent effects of NS on tryptophan fluorescence, 1 μl of NS from each 100× stock solution was sequentially added to the NaI-equilibrated protein and thoroughly mixed to achieve concentrations from 0.01 to 50 μM. […]

Structure (SMILES) | potentiating effect with α1(Q242L) mutation [1] | potentiation of GABA-elicited currents (α1β3 GABAA receptors) | Hill slope (ELIC-α1GABAAR [3]; 3α-OH NS, MQ290 3 μM) | Hill slope (ELIC-α1GABAAR [3]; 3β-OH NS, MQ290 1 μM) | other results
CO[C@H]1CCC2C3=CC=C4C[C@H](O)CC[C@]4(C)C3=CC[C@@]21C (stereo partly drawn) [MQ290] | eliminated | potentiates | – | – | reduction of maximal MQ290 FRET signal in W246L receptors (ELIC-α1^W246LGABAAR): ~ 90% and 90%; prevention of KK200 photolabelling of TM3 (Y309) (ELIC-α1GABAAR [2]): significantly different than control; also recorded: prevented; MQ290 FRET signal in Q242L mutants (ELIC-α1^Q242LGABAAR): significantly reduced; EC50 (α1β3 GABAA receptors): 1 to 10 µM
CC(=O)[C@H]1CC[C@H]2[C@@H]3CC[C@@H]4C[C@H](O)CC[C@]4(C)[C@H]3CC[C@]12C [PREG, pregnanolone] | – | – | −1.02 ± 0.35 | – | –
CO[C@H]1CCC2C3CC[C@H]4C[C@H](O)CC[C@]4(C)C3CC[C@@]21C (stereo partly drawn) [YX03] | blocked | enhances; also recorded: potentiates | −0.98 ± 0.37 | – | prevention of AlloP induced quenching (ELIC-α1GABAAR [4]): partially prevents; quenching of ELIC-α1GABAAR tryptophan fluorescence (ELIC-α1GABAAR [4]; YX03 10 and 30 µM): absent; also recorded: does not quench
CC(=O)[C@H]1CCC2C3CC[C@@H]4C[C@@H](O)CC[C@]4(C)C3CC[C@@]21C (stereo partly drawn) [Epi-PREG, Epi-pregnanolone] | prevented | potentiates | – | −0.77 ± 0.42 | –
CC(=O)[C@H]1CC[C@H]2[C@@H]3CC[C@H]4C[C@](C)(O)CC[C@]4(C)[C@H]3CC[C@]12C [GX, ganaxolone] | – | – | −1.57 ± 0.26 | – | –
CC(=O)[C@H]1CCC2C3CC[C@H]4C[C@@](C)(O)CC[C@]4(C)C3CC[C@@]21C (stereo partly drawn) [Epi-GX, epi-ganaxolone] | – | do not | – | −0.67 ± 0.30 | –

From paper PMC11585924, “Direct measurements of neurosteroid binding to specific sites on GABAA receptors” (British journal of pharmacology, 2024)
